The results in this text go back to patent US20060069132A1, “Azolecarboxamide herbicides” (priority 2004, published 2006).

The subject of one assay is ducksalad. Description: Test C flooded paddy test. In kind it is in vivo, Heteranthera limosa. To be noted: for Plant response rating, Ducksalad: 500 g ai/ha, visual rating after 12 to 14 days.
The next assay relates to soybean. Nature of the assay: Test C pre-/postemergence herbicide test. Format: in vivo, Glycine max. The procedure, abridged: (§1)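 Visual ratings on a 0–100 scale (100 = complete control) made versus untreated controls after 12 to 14 greenhouse days. Test chemicals, formulated in surfactant-containing non-phytotoxic solvent, applied preemergence to planted seeds or postemergence to 1- to 4-leaf plants (2 to 18 cm).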

For a further assay, the system named is corn. Description: Test B pre-/postemergence herbicide test. Format: in vivo, Zea mays. The procedure, abridged: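 Response was scored visually 13 to 15 days after treatment against untreated greenhouse controls, 0 meaning no effect and 100 complete control. Formulations (solvent mixture plus surfactant) went onto soil after planting, onto foliage of 1- to 4-leaf plants, and onto 2-leaf plants in a flooded paddy set including rice and barnyardgrass.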

In a further assay the test system is rice. Nature of the assay: Test C flooded paddy test. In kind it is in vivo, Oryza sativa. To be noted: for Plant response rating, Rice: 500 g ai/ha, visual rating after 12 to 14 days. The procedure, abridged:
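Injury scored visually against controls on a 0 (no effect) to 100 (complete control) scale, 12 to 14 days after treatment in greenhouse. Flooded paddy plants treated at 2-leaf stage; postemergence plants at 1- to 4-leaf stage, 2 to 18 cm tall.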

In another assay the test system is blackgrass. Description: Test B postemergence herbicide test. To be noted: for Plant response rating, Blackgrass: visual rating after 13 to 15 days. Format: in vivo, Alopecurus myosuroides. In outline:
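Visual control ratings, 0–100 versus untreated controls, taken after 13 to 15 days in the greenhouse. Blackgrass received a postemergence spray at the 1- to 4-leaf stage (2–18 cm); ducksalad, umbrella sedge and barnyardgrass were flooded-paddy treated at 2 leaves.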

In another assay the test system is common ragweed. Description: Test C pre-/postemergence herbicide test. In kind it is in vivo, Ambrosia elatior. Details: key to Plant response rating, Ragweed: 0 = no effect, 100 = complete control. In outline: as §1
In a further assay the test system is woolly cupgrass. Nature of the assay: Test C pre-/postemergence herbicide test. In kind it is in vivo, Eriochloa villosa. In outline: as §1
[1] abbreviates: 125 g ai/ha, scale 0 to 100 (0 no effect, 100 complete control).
[2] abbreviates: 250 g ai/ha, scale of 0 to 100, 0 is no effect, 100 is complete control.
[3] abbreviates: scale 0 to 100 (0 no effect, 100 complete control).
The mark [4] stands for this setting: 62 g ai/ha, preemergence, scale 0 to 100.
[5] abbreviates: 250 g ai/ha, scale 0-100, preemergence.
Setting [6] is: 500 g ai/ha, scale 0 to 100 (0 no effect, 100 complete control), visual, 12 to 14 days, preemergence.
The mark [7] stands for this setting: 125 g ai/ha, visual rating, scale 0 (no effect) to 100 (complete control), postemergence.
Setting [8] is: postemergence, 500 g ai/ha, scale 0 to 100, 0 is no effect, 100 is complete control.
Setting [9] is: 62 g ai/ha, scale 0 to 100 (0 no effect, 100 complete control).
[10] abbreviates: 125 g ai/ha, scale of 0 to 100, 0 is no effect, 100 is complete control.
The mark [11] stands for this setting: Postemergence, 250 g ai/ha, scale 0 to 100, 0 no effect, 100 complete control.
Setting [12] is: postemergence, 125 g ai/ha, scale 0 to 100.
Where [13] appears, read: postemergence, 62 g ai/ha, scale 0 to 100.
[14] abbreviates: Postemergence, 500 g ai/ha, visual rating after 13 to 15 days, scale 0 (no effect) to 100 (complete control).
[15] abbreviates: postemergence, 125 g ai/ha, visual rating, scale 0 (no effect) to 100 (complete control).
The mark [16] stands for this setting: preemergence, 125 g ai/ha, 0 to 100 scale, 0 is no effect, 100 is complete control.
Where [17] appears, read: Postemergence, 500 g ai/ha, scale 0 (no effect) to 100 (complete control).
[18] abbreviates: 125 g ai/ha, scale 0 (no effect) to 100 (complete control), visual, 12 to 14 days, preemergence.
Setting [19] is: Preemergence, 500 g ai/ha, scale 0 to 100, 0 no effect, 100 complete control.
The mark [20] stands for this setting: Postemergence, 250 g ai/ha, scale 0 (no effect) to 100 (complete control).
[21] abbreviates: 31 g ai/ha, preemergence, scale 0 to 100.

For `CCC1=NN(C(C)(C)C)CC1C(=O)Nc1cc(C(=O)N(C)CC)ccc1F` (racemic) [Compound 342], the “Ducksalad plant response rating” value came out at 50 with ducksalad (62 g ai/ha, scale 0 to 100); 50 in the assay on ducksalad (setting [1]); 80 in the assay with ducksalad (setting [2]). In the assay with ducksalad (setting [3]), the “Plant response rating, Ducksalad” value came to 80. Moreover, the “Plant response rating, Soybean” value came to 10 in the assay with soybean (setting [4]), 100 in the assay with soybean (setting [5]) and 100 in the assay with soybean (setting [6]). For the same compound, the “Plant response rating (0 = no effect, 100 = complete control), Soybean” value in the assay on soybean (125 g ai/ha, preemergence) is 60. In addition, the figures for the “Corn plant response rating” value in the assay with corn (setting [7]) and in the assay on corn (setting [8]) were 10 and 30, respectively. Besides, the “Rice plant response rating” value in the assay with rice (62 g ai/ha, scale 0 to 100) was 20; in the assay on rice (setting [1]), 30; with rice (setting [2]), 60. The “Plant response rating, Rice” value with rice (setting [3]) was determined as 80. The “Blackgrass plant response rating” value amounted to 20 in the assay with blackgrass (setting [7]) and 30 in the assay with blackgrass (setting [8]). Also, the figures for the “Plant response rating, Ragweed” value in the assay with common ragweed (setting [4]), in the assay on common ragweed (setting [5]) and in the assay on common ragweed (setting [6]) were 55, 100 and 100, respectively. In addition, the “Plant response rating (0 = no effect, 100 = complete control), Ragweed” value in the assay on common ragweed (125 g ai/ha, preemergence) came out at 95. For the same compound, the figures for the “Plant response rating, Cupgrass, Woolly” value in the assay on woolly cupgrass (setting [4]), in the assay on woolly cupgrass (setting [5]) and in the assay with woolly cupgrass (setting [6]) were 10, 50 and 70, respectively. In addition, the “Plant response rating (0 = no effect, 100 = complete control), Cupgrass, Woolly” value in the assay on woolly cupgrass (125 g ai/ha, preemergence) is given as 40.
Regarding `CCn1nc(C(C)(C)C)cc1C(=O)Nc1cccc(C(=O)OC)c1` [Compound 81], the “Ducksalad plant response rating” value is listed as 0 in the assay with ducksalad (setting [9]), 0 in the assay on ducksalad (setting [10]) and 20 in the assay on ducksalad (setting [2]). The “Plant response rating, Ducksalad” value with ducksalad (setting [3]) worked out at 20. Further, the results for the “Plant response rating, Soybean” value with soybean (setting [11]), in the assay on soybean (setting [12]) and with soybean (setting [13]) were 30, 30 and 10, respectively. In addition, the “Plant response rating, Corn” value with corn (setting [14]) came to 30; with corn (setting [16]), 0. Besides, the “Corn plant response rating” value with corn (Preemergence, 500 g ai/ha, scale 0 to 100) is 0; in the assay with corn (setting [15]), 10. For the same compound, the “Rice plant response rating” value in the assay on rice (setting [9]) is given as 20; with rice (setting [10]), 20; in the assay with rice (setting [2]), 30. Besides, the “Plant response rating, Rice” value in the assay with rice (setting [3]) is on record as 40. Also, in the assay on blackgrass (setting [17]), the “Plant response rating, Blackgrass” value came to 20. Also, in the assay on blackgrass (setting [15]), the “Blackgrass plant response rating” value is on record as 0. Also, the figures for the “Plant response rating, Ragweed” value in the assay with common ragweed (setting [11]), in the assay with common ragweed (setting [12]) and in the assay with common ragweed (setting [13]) were 60, 60 and 40, respectively. The “Plant response rating, Cupgrass, Woolly” value in the assay on woolly cupgrass (setting [11]), in the assay with woolly cupgrass (setting [12]) and in the assay with woolly cupgrass (setting [13]) was 5 in each case.
Consider `CCC1=NN(C(C)(C)C)CC1C(=O)Nc1cc(C(=O)N2CC=CC2)ccc1F` (racemic) [Compound 340], for which the “Ducksalad plant response rating” value stood at 50 with ducksalad (62 g ai/ha, scale 0 to 100); 70 with ducksalad (setting [1]); 70 in the assay with ducksalad (setting [2]). In addition, the “Plant response rating, Ducksalad” value in the assay on ducksalad (setting [3]) is given as 90. The “Plant response rating, Soybean” value turned out to be 0 in the assay on soybean (setting [4]), 0 with soybean (setting [5]) and 10 in the assay with soybean (setting [6]). In addition, the “Plant response rating (0 = no effect, 100 = complete control), Soybean” value with soybean (125 g ai/ha, preemergence) is reported as 0. Besides, the “Corn plant response rating” value in the assay on corn (setting [7]) came out at 0; in the assay with corn (setting [8]) it was 20. Besides, the “Rice plant response rating” value in the assay with rice (62 g ai/ha, scale 0 to 100) worked out at 20; with rice (setting [1]), 40; in the assay on rice (setting [2]), 70. Moreover, in the assay on rice (setting [3]), the “Plant response rating, Rice” value is recorded as 80. In addition, the “Blackgrass plant response rating” value was 20 in the assay with blackgrass (setting [7]) and 30 in the assay with blackgrass (setting [8]). Moreover, the results for the “Plant response rating, Ragweed” value in the assay on common ragweed (setting [4]), in the assay on common ragweed (setting [5]) and in the assay with common ragweed (setting [6]) were 0, 20 and 75, respectively. Moreover, in the assay on common ragweed (125 g ai/ha, preemergence), the “Plant response rating (0 = no effect, 100 = complete control), Ragweed” value stood at 0. For the same compound, the “Plant response rating, Cupgrass, Woolly” value in the assay with woolly cupgrass (setting [4]) is on record as 0; in the assay on woolly cupgrass (setting [5]), 45; in the assay on woolly cupgrass (setting [6]) it was 75. Moreover, the “Plant response rating (0 = no effect, 100 = complete control), Cupgrass, Woolly” value in the assay on woolly cupgrass (125 g ai/ha, preemergence) turned out to be 20.
Take `CCNC(=O)c1ccnc(NC(=O)c2cc(C(C)(C)C)nn2CC)c1` [Compound 152]: the “Ducksalad plant response rating” value with ducksalad (setting [9]), in the assay on ducksalad (setting [1]) and in the assay on ducksalad (setting [2]) was 85 each time. In addition, the “Plant response rating, Ducksalad” value with ducksalad (setting [3]) is on record as 85. Also, the “Plant response rating, Soybean” value in the assay on soybean (setting [4]) was found to be 0; in the assay with soybean (setting [18]), 10. Also, the “Soybean plant response rating” value with soybean (setting [19]) turned out to be 100. Moreover, the “Corn plant response rating” value in the assay with corn (setting [20]) is 30; in the assay on corn (setting [13]) it was 20. For the same compound, the figures for the “Rice plant response rating” value in the assay with rice (setting [9]), in the assay on rice (setting [1]) and in the assay on rice (setting [2]) were 50, 75 and 75, respectively. In addition, the “Plant response rating, Rice” value with rice (setting [3]) is 80. The “Blackgrass plant response rating” value in the assay with blackgrass (setting [20]) and with blackgrass (setting [13]) was 20 throughout. The “Plant response rating, Ragweed” value with common ragweed (setting [4]) and in the assay on common ragweed (setting [18]) was 85 throughout. In addition, the “Ragweed plant response rating” value in the assay on common ragweed (setting [19]) is 100. The “Plant response rating, Cupgrass, Woolly” value stood at 40 in the assay with woolly cupgrass (setting [4]); 50 in the assay on woolly cupgrass (setting [18]); 100 with woolly cupgrass (250 g ai/ha, scale 0 to 100 (0 no effect, 100 complete control), visual, 12 to 14 days, preemergence). Further, the “Cupgrass, Woolly plant response rating” value in the assay on woolly cupgrass (setting [19]) is reported as 100.
Regarding `CCC(=NO)c1cccc(NC(=O)c2cc(C(C)(C)C)nn2C)c1` [Compound 118], the entries for the “Ducksalad plant response rating” value with ducksalad (setting [9]), in the assay on ducksalad (setting [10]) and in the assay on ducksalad (setting [2]) were 0, 50 and 50, respectively. Further, the “Plant response rating, Ducksalad” value in the assay with ducksalad (setting [3]) worked out at 50. The entries for the “Plant response rating, Soybean” value in the assay on soybean (setting [21]) and in the assay with soybean (setting [18]) were 0 and 10, respectively. The “Plant response rating (0 = no effect, 100 = complete control), Soybean” value in the assay on soybean (62 g ai/ha, preemergence) is reported as 0. Besides, the “Plant response rating, Corn” value with corn (500 g ai/ha, visual rating 0-100, 0 no effect, 100 complete control, preemergence) came to 10; with corn (setting [14]), 40; with corn (setting [16]), 0. In addition, the “Corn plant response rating” value in the assay with corn (setting [15]) is given as 20. The “Rice plant response rating” value was 20 in the assay with rice (setting [9]), 30 with rice (setting [10]) and 40 in the assay with rice (setting [2]). In addition, the “Plant response rating, Rice” value in the assay with rice (setting [3]) was determined as 50. Besides, the “Plant response rating, Blackgrass” value with blackgrass (setting [17]) was 10. Besides, the “Blackgrass plant response rating” value with blackgrass (setting [15]) worked out at 0. Also, the “Plant response rating, Ragweed” value with common ragweed (setting [21]) is recorded as 0; in the assay with common ragweed (setting [18]) it was 10. The “Plant response rating (0 = no effect, 100 = complete control), Ragweed” value in the assay on common ragweed (62 g ai/ha, preemergence) was 0. In addition, the “Plant response rating, Cupgrass, Woolly” value in the assay with woolly cupgrass (setting [21]) and with woolly cupgrass (setting [18]) was 0 each time. In the assay with woolly cupgrass (62 g ai/ha, preemergence), the “Plant response rating (0 = no effect, 100 = complete control), Cupgrass, Woolly” value is reported as 0.
